Source: patent US6706732B1, “Nasal preparation of guanidinoimino quinoline derivatives” (Takeda Chemical Industries, Ltd., priority 1999, dated 2004)

Assay: Serum concentration of Compound B after nasal administration to rats
Assay type: in vivo, male SD rat
Conditions: rat
Method: A male SD rat (8 weeks old) was anesthetized with ether and each of the preparations of Formulation Examples 1 to 6 was given into the left nasal cavity. The dose of Compound B was 0.75 mg/kg (Formulation Example 1), 1.5 mg/kg (Formulation Example 2), 3.0 mg/kg (Formulation Example 3), 6.0 mg/kg (Formulation Example 4), 1.5 mg/kg (Formulation Example 5) and 3.0 mg/kg (Formulation Example 6). Each of the preparations of Formulation Examples 1 to 4 was taken as a portion of about 10 mg, which was filled in a polyethylene tube (INTRAMEDIC PE90, BECKTON DICKINSON) and the polyethylene tube was inserted into the nasal cavity, where it was sprayed with 2 cc of air. Each of the preparations of Formulation Examples 5 and 6 was given as a 20 μl aliquot via a micropipette (*EXCELMYDEGI* 8000, D-5, SANKO JUNYAKU). The preparation of Comparative 1 was given intravenously into a femoral vein of the rat (dose: 1 mg/kg).
After administration of the preparation, blood was taken at a certain interval via a tail vain and examined for the serum concentration of Compound B.
In the case of `CS(=O)(=O)O.Cc1ccnc2c1C(=NNC(=N)N)CC(c1ccccc1Cl)C2` (single isomer, unassigned; (-)) [Compound B, (−)-7-(2-chlorophenyl)-5-guanidinoimino-4-methyl-5,6,7,8-tetrahydroquinoline methanesulfonate], the in vivo absorption is reported as “rapid in vivo absorption”.

Assay: not given
Conditions: not given
For `Cc1ccnc2c1C(=NNC(=N)N)CC(c1ccccc1Cl)C2.Cl` (centres unmarked), the melting point was 204 °C (dec.). Work on `CS(=O)(=O)O.Cc1ccc(F)cc1C1CC(=NNC(=N)N)c2c(C)ccnc2C1` (centres unmarked) yielded a melting point of 202 to 204 °C. For `Cc1ccnc2c1C(=NNC(=N)N)CC(c1cc(F)ccc1Cl)C2.Cl` (centres unmarked), the melting point was 268 °C (dec.). For `Cc1ccnc2c1C(=NNC(=N)N)CC(c1cc(F)ccc1F)C2.Cl` (centres unmarked), the melting point was 290 °C (dec.). `Cc1cc(C)c2c(n1)CC(c1cc(F)ccc1C)CC2=NNC(=N)N.Cl` (centres unmarked) showed a melting point of 201 to 203 °C. With `CS(=O)(=O)O.Cc1ccnc2c1C(=NNC(=N)N)CC(c1ccccc1Cl)C2` (single isomer, unassigned; (-)) [Compound B, (−)-7-(2-chlorophenyl)-5-guanidinoimino-4-methyl-5,6,7,8-tetrahydroquinoline methanesulfonate] the melting point was 194 to 195 °C. With `Cc1ccc(F)cc1C1CC(=NNC(=N)N)c2c(C)ccnc2C1.Cl` (centres unmarked) [Compound C] the melting point was 202 to 205 °C. For `Cc1ccc(F)cc1C1CC(=NNC(=N)N)c2c(C)ccnc2C1.Cl` (centres unmarked) [Compound E], the melting point was 192 to 198 °C. Work on `CS(=O)(=O)O.Cc1ccnc2c1C(=NNC(=N)N)CC(c1cc(F)ccc1Cl)C2` (centres unmarked) [Compound H] yielded a melting point of 209 to 212 °C. With `CS(=O)(=O)O.Cc1ccnc2c1C(=NNC(=N)N)CC(c1cc(F)ccc1Cl)C2` (centres unmarked) [Compound I] the melting point was 206 to 209 °C.
